Experimental data from patent US20080113868A1, “Colorant compositions and their use as pH sensitive color indicators” (priority 2006, published 2008).

Legend:
Type in all cases: physicochemical
[1] = Lightfastness test (AATCC Test Method 16-1993 Option E), effect of ultraviolet light
Protocol: In order to determine the effect of ultraviolet light on the de-coloration rate over time of the colorant compositions of the present invention, the colorants were subjected to a lightfastness test. The test was performed according to AATCC Test Method 16-1993 Option E. Comparative Colorants 1-4 were also tested.
The results are provided as DE CMC values and represent the color difference from the standard or control, which was white paper. […] This value for each of the time intervals is then divided by the initial DE CMC value and multiplied by 100.

[2] = Test for pH effect on de-coloration: absorbance in aqueous pH buffer solutions
Protocol: Several 1% solutions of colorant were prepared and added to standard aqueous pH buffer solutions available from VWR and Aldrich to give absorbance of less than one. The colorant solution was tested for absorbance using a DU 7 Spectrophotometer.
In general, the pKa value represents the pH value when approximately half of the colorant is converted to its colorless form. […] “Comparative” is indicated as “Comp.”

[3] = Cellulose powder staining test; settings: on cellulose powder after stirring with deionized water for one minute
Protocol: Colorant 8 was diluted in water to an absorbtivity value of 33.5 A/g/L; then 0.73 parts was dissolved in 5 parts of methanol to give a stock solution A. One part of this solution was mixed with 10 parts of cellulose microcrystalline powder available from Aldrich. The colored powder was dried in a beaker in a 100° C. oven over 20 minutes with occasional stirring. The dry powder was cooled and stirred with 50 parts deionized water for one minute. The slurry was filtered and the filtrate was collected. The percent retention of color on the cellulose powder was calculated from the ratio of the absorbance of one part stock solution A diluted with 50 parts water and the absorbance of the filtrate solution.
The same procedure was used with a stock solution of 0.73 parts dodecenyl succinic ester acid colorant, Inventive Colorant 9, dissolved in 5 ml of methanol. The percent retention of color was determined in the same manner.

[4] = ultraviolet light exposure time 0 hours
[5] = ultraviolet light exposure time 0 hours (initial)
[6] = ultraviolet light exposure time 2 hours
[7] = ultraviolet light exposure time 5 hours
[8] = ultraviolet light exposure time 10 hours
[9] = ultraviolet light exposure time 20 hours
[10] = pH value when approximately half of the colorant is converted to its colorless form

Molecule | Percent Color Fade [1, 4] [%] | DE CMC value (color difference from white paper) [1, 5] | DE CMC value (color difference from white paper) [1, 6] | Percent Color Fade [1, 6] [%] | DE CMC value (color difference from white paper) [1, 7] | Percent Color Fade [1, 7] [%] | DE CMC value (color difference from white paper) [1, 8] | Percent Color Fade [1, 8] [%] | DE CMC value (color difference from white paper) [1, 9] | Percent Color Fade [1, 9] [%] | Absorbance ([2]; aqueous buffer pH 2) | Absorbance ([2]; aqueous buffer pH 4) | Absorbance ([2]; aqueous buffer pH 6) | Absorbance ([2]; aqueous buffer pH 7) | Absorbance ([2]; aqueous buffer pH 8) | Absorbance ([2]; aqueous buffer pH 9) | Absorbance ([2]; aqueous buffer pH 10) | pKa Value [2, 10] | pKa [2, 10] | Percent Color Retention [3] [%]
3,4-methylenedioxyphenyl-methyliumylidene-di(4,1-phenyleneamino)N,N-polyethyleneoxy(10), Chloride [Colorant 3] | 0 | 75.15 | 36.95 | 50.83 | 34.25 | 54.42 | 33.39 | 55.57 | 29.45 | 60.81 | 0.9589 | 0.955 | 0.9609 | 0.7309 | 0.2375 | 0.0424 | 0.0199 | 7.5 | – | –
3-Methoxy-4-Polyethyleneoxide(6)phenyl-methyliumylidene-di(4,1-phenyleneamino)N,N-polyethyleneoxy(10), Chloride [Colorant 5] | 0 | 38.47 | 32.17 | 16.38 | 31.67 | 17.68 | 29.83 | 22.46 | 7.15 | 81.42 | 0.8266 | 0.8269 | 0.7735 | 0.5674 | 0.1928 | 0.0527 | 0.0312 | 7.3 | – | –
4-Methylphenyl-methyliumylidene-di(4,1-phenyleneamino)N,N-polyethyleneoxy(10), Chloride [Colorant 4] | 0 | 50.95 | 41.31 | 18.92 | 38.99 | 23.47 | 37.19 | 27.01 | 30.97 | 39.22 | 0.8881 | 0.8878 | 0.8304 | 0.569 | 0.154 | 0.0244 | 0.0079 | 7.3 | – | –
CCN(Cc1cccc(S(=O)(=O)[O-])c1)c1ccc(C(=C2C=CC(=[N+](CC)Cc3cccc(S(=O)(=O)[O-])c3)C=C2)c2ccccc2S(=O)(=O)[O-])cc1.[Na+].[Na+] [Comp. Colorant 3, Acid Blue 9, reference compound] | 0 | 58.19 | 52.89 | 9.11 | 49.83 | 14.37 | 46.51 | 20.07 | 40.21 | 30.90 | 0.764 | 0.7699 | 0.7253 | – | 0.7829 | – | 0.804 | >10 | – | –
CN(C)c1ccc(C(=C2C=CC(=[N+](C)C)C=C2)c2ccccc2)cc1 [Comp. Colorant 4, Basic Green 4, reference compound] | 0 | 44.71 | 14.37 | 67.86 | 13.05 | 70.81 | 9.65 | 78.42 | 5.67 | 87.32 | 0.319 | 0.3843 | 0.4546 | 0.2678 | 0.0538 | 0.0361 | 0.0111 | – | 7 | –
Phenyl-methyliumylidene-di(4,1-phenyleneamino)N,N-polyethyleneoxy(5), Chloride [Colorant 8] | 0 | 51.09 | 39.83 | 22.04 | 38.01 | 25.60 | 12.29 | 75.94 | 8.95 | 82.48 | – | – | – | – | – | – | – | – | – | 56
Phenyl-methyliumylidene-di(4,1-phenyleneamino)N,N-polyethyleneoxy(5)-tetrakisDodecenylsuccinate acid, inner salt [Colorant 9] | – | – | – | – | – | – | – | – | – | – | – | – | – | – | – | – | – | – | – | 92.6
Phenyl-methyliumylidene-di(4,1-phenyleneamino)N,N-polyethyleneoxy(10), Chloride [Colorant 1] | – | – | – | – | – | – | – | – | – | – | 0.95 | 0.95 | 0.82 | 0.35 | 0.05 | 0.005 | 0.005 | 6.6 | – | –
